Data as given in patent publication US20190282673A1, “STAPHTAME ACTIVITY ON BIOFILMS” (priority 2016, published 2019).
“And” between values parts separate entries of the source, which are not always exact repeats. Equal values may be shown once. Read-outs that look alike come from different tables or passages of the source.

Columns and labels:
[1] = test system: S. aureus BK18 and B9377 persisters; assay: P128 and antibiotic activity on persisters (CFU); format: cell-based, Staphylococcus aureus; conditions: for CFU/mL after treatment of persisters: 1×MIC, P128 1 h, antibiotics 6 h
Experimental: Persisters were generated as above were treated with P128 and antibiotics (Ref: Gutiérrez, et al. (2014) Effective Removal of Staphylococcal Biofilms by the Endolysin LysH5 PLoS One 9(9): e107307).
To 450 μL aliquots, P128. Daptomycin and Vancomycin (in saline) were added (individually) each at 1×MIC Conc., and another 450 μL aliquot was taken as control. The persister samples treated with P128 were incubated for 1 h, 37° C., and 200 rpm and those treated with antibiotics were incubated for 6 h, 37° C., and 200 rpm. After incubation samples were serially log diluted and plated.

[2] = test system: S. epidermidis, S. lugdunensis and S. haemolyticus biofilms; assay: CoNS biofilm eradication, crystal violet staining; format: cell-based; conditions: for Activity on preformed biofilm, crystal violet: 250 and 100 μg/mL for 4 h, all three CoNS
Experimental: Dis. 209:1469-78 was followed. Briefly, S. epidermidis, S. lugdunensis and S. haemolyticus strains were inoculated into TSB with 2% glucose and the cultures were grown overnight. The cultures were diluted 1:50 in TSB to achieve an OD600˜0.1. Two hundred micro liter of the diluted culture was added to 1.8 ml of TSB media aliquoted into each well of a 24 well plate (˜5×10^5 CFU). The plates were kept at 37° C. under static conditions for 18 h, the contents were aspirated, the wells were washed twice with 2.0 ml of 1×PBS, and 1 mL of media+1 mL of the drug was added to each well and incubated at 37° C. for 0, 2, 4, and 24 h. TSB supplemented with 50 μg/ml Ca^++ was used for daptomycin treatment wells. The contents were aspirated out at the stipulated time points and the wells were washed with 2 ml of 1×PBS. The wells were allowed to dry at 37° C. for 15 min and stained with 1 mL of 1% CV for 5 min. The wells were washed with 1 mL of 1×PBS, air dried and observed for intensity of blue color.
0.1% CV was used for staining biofilms. Post staining and washing steps, 1 mL 30% acetic acid is added to each well, incubated in RT for 5-10 min, contents in the well are mixed thoroughly and OD was read at 570 nm.

S. aureus = assay: MIC and checkerboard synergy (broth microdilution) on planktonic cells; format: cell-based, Staphylococcus aureus; conditions: for MIC: Staphylococcus aureus
Experimental: MIC was determined using a modified Clinical and Laboratory Standards Institute (CLSI) broth microdilution procedure described earlier in Vipra, et al. (2012) “Antistaphylococcal activity of bacteriophage derived chimeric protein P128” BMC Microbiol. 12:41-50; and Clinical and Laboratory Standards Institute (2012) “Methods for Dilution Antimicrobial Susceptibility Tests for Bacteria That Grow Aerobically; Approved Standard” CLSI document M07-A9.9 ed. Wayne, Pa. USA. In order to determine effects of combinations of P128 with antibiotics, combinations of various dilutions of P128 and a second drug were tested for growth inhibition using a microdilution checkerboard technique. See Lu, et al. (2013) “In vitro activity of sodium new houttuyfonate alone and in combination with oxacillin or netilmicin against methicillin-resistant Staphylococcus aureus” PLoS One 8:e68053. Briefly, S. aureus culture at a final cell number of 5×10^5 CFU/mL was added to wells of 96-well microtiter plates (precoated with 0.5% BSA), containing two-fold dilutions of P128 and the second drug in cation adjusted Mueller Hinton Broth (CAMHB). The plates were incubated at 37° C. for 24 h and the individual MICs and the combination MICs were read. The fractional inhibitory concentration index (FICI) was determined using the following equation: FICI=(MIC of drug A in the combination/MIC of drug A alone)+(MIC of drug B in the combination/MIC of drug B alone). The combination was considered to be synergistic when the FICI was ≤0.5; additive when FICI was 0.5-1.0; indifferent when FICI was 1-4 and antagonistic when FICI≥4. The experiments were performed in triplicate and repeated twice.
In order to find out whether P128 can act in a synergistic manner with commonly used antibiotics, MIC based growth inhibition assays were performed. MIC based synergy was studied by checkerboard method by determining the FIC index using the method of Lu, et at (2013) “In vitro activity of sodium new houttuyfonate alone and in combination with oxacillin or netilmicin against methicillin-resistant Staphylococcus aureus” PLoS One 8:e68053. […] Similarly.
Bacterial cultures at a final cell number of 5×10^5 CFU/mL was added to wells of 96-well microtiter plates (precoated with 0.5% BSA), containing two-fold dilutions of P128 and the second drug in cation adjusted Mueller Hinton Broth (CAMHB). The plates were incubated at 37° C. for 24 h and the individual MICs and the combination MICs were read. The fractional inhibitory concentration index (FICI) was determined using the following equation: FICI=(MIC of drug A in the combination/MIC of drug A alone)+(MIC of drug B in the combination/MIC of drug B alone). The combination was considered to be synergistic when the FICI was ≤0.5; additive when FICI was 0.5-1.0; indifferent when FICI was 1-4 and antagonistic when FICI≥4.

Molecule: CCCCCCCCCC(=O)N[C@@H](Cc1c[nH]c2ccccc12)C(=O)N[C@H](CC(N)=O)C(=O)N[C@@H](CC(=O)O)C(=O)N[C@@H]1C(=O)NCC(=O)N[C@@H](CCCN)C(=O)N[C@@H](CC(=O)O)C(=O)N[C@H](C)C(=O)N[C@@H](CC(=O)O)C(=O)NCC(=O)N[C@H](CO)C(=O)N[C@@H]([C@H](C)CC(=O)O)C(=O)N[C@@H](CC(=O)c2ccccc2N)C(=O)O[C@@H]1C [Daptomycin, daptomycin]
- CFU/mL after treatment of persisters ([1]; B9377 Daptomycin persisters): 1 × 10^2 CFU/mL
- CFU/mL after treatment of persisters ([1]; B9377 Vancomycin persisters): 6 × 10^5 CFU/mL
- CFU/mL after treatment of persisters ([1]; BK18 Daptomycin persisters): 1 × 10^1 CFU/mL
- CFU/mL after treatment of persisters ([1]; BK18 Vancomycin persisters): 7.5 × 10^5 CFU/mL
- Activity on preformed biofilm, crystal violet [2]: poor activity

Molecule: CC(=O)NC[C@H]1CN(c2ccc(N3CCOCC3)c(F)c2)C(=O)O1 [Linezolid, linezolid]
- MIC (S. aureus; 24 h, LRSA strain B9456, read-out: MIC (drug alone)): > 32 µg/mL
- MIC (S. aureus; 24 h, LRSA strain B9457, read-out: MIC (drug alone)): 8 µg/mL
- Activity on preformed biofilm, crystal violet [2]: poor activity

Molecule: CN[C@H](CC(C)C)C(=O)N[C@H]1C(=O)N[C@@H](CC(N)=O)C(=O)N[C@H]2C(=O)N[C@H]3C(=O)N[C@H](C(=O)N[C@H](C(=O)O)c4cc(O)cc(O)c4-c4cc3ccc4O)[C@H](O)c3ccc(c(Cl)c3)Oc3cc2cc(c3O[C@@H]2O[C@H](CO)[C@@H](O)[C@H](O)[C@H]2O[C@H]2C[C@](C)(N)[C@H](O)[C@H](C)O2)Oc2ccc(cc2Cl)[C@H]1O [Vancomycin, vancomycin]
- MIC (S. aureus; 24 h, read-out: MIC (drug alone), S. aureus B9241 (gentamycin and ciprofloxacin resistant)): 1 µg/mL
- MIC (S. aureus; ATCC29213, read-out: MIC over the strains, ATCC29213, BK1 and B9241): 1 µg/mL
- MIC (S. aureus; ATCC 29213 / MSSA, 24 h, read-out: MIC (drug alone), S. aureus ATCC 29213 (MSSA)): 1 µg/mL
- MIC (S. aureus; MRSA, 24 h, read-out: MIC (drug alone), S. aureus BK1 (MRSA, ciprofloxacin resistant)): 1 µg/mL
- MIC (S. aureus; VRSA, 24 h, read-out: MIC (drug alone), VRSA strain VRS 1): 32 µg/mL
- MIC (S. aureus; VRSA, 24 h, read-out: MIC (drug alone), VRSA strain VRS 2): 32 µg/mL
- MIC (S. aureus; VRSA, 24 h, read-out: MIC (drug alone), VRSA strain VRS 3a): 32 µg/mL
- MIC (S. aureus; VRSA, 24 h, read-out: MIC (drug alone), VRSA strain VRS 3b): 32 µg/mL
- MIC (S. aureus; VRSA, 24 h, read-out: MIC (drug alone), VRSA strain VRS 4): 32 µg/mL
- MIC (S. aureus; VRSA, 24 h, read-out: MIC (drug alone), VRSA strain VRS 10): 16 µg/mL
- CFU/mL after treatment of persisters ([1]; B9377 Daptomycin persisters): 2.6 × 10^2 CFU/mL
- CFU/mL after treatment of persisters ([1]; B9377 Vancomycin persisters): 4 × 10^5 CFU/mL
- CFU/mL after treatment of persisters ([1]; BK18 Daptomycin persisters): 1 × 10^1 CFU/mL
- CFU/mL after treatment of persisters ([1]; BK18 Vancomycin persisters): 8 × 10^5 CFU/mL
- Activity on preformed biofilm, crystal violet [2]: poor activity

B1: P128: anti-staphylococcal chimeric protein: phage tail associated muralytic enzyme (TAME) cell wall-degrading region plus staphylococcus-specific binding region; SEQ ID NO: 1 (protein)
chain: MSLDSLKKYNGKLPKHDPSFVQPGNRHYKYQCTWYAYNRRGQLGIPVPLWGDAADWIGGAKGAGYGVGRTPKQGACVIWQRGVQGGSPQYGHVAFVEKVLDGGKKIFISEHNYATPNGYGTRTIDMSSAIGKNAQFIYDKKLETPNTGWKTNKYGTLYKSESASFTPNTDIITRTTGPFRSMPQSGVLKAGQTIHYDEVMKQDGHVWVGYTGNSGQRIYLPVRTWNKSTNTLGVLWGTIK
modifications: P128 chimera
- MIC over the strains (S. aureus; ATCC29213, BK1 and B9241): 4 to 8 µg/mL
- MIC (drug alone) (S. aureus; LRSA strain B9456): 2 µg/mL
- MIC (drug alone) (S. aureus; LRSA strain B9457): 1 µg/mL
- MIC (drug alone) (S. aureus; MRSA strain BK22): 0.45 µg/mL
- MIC (drug alone) (S. aureus; S. aureus ATCC 29213 (MSSA)): 4 µg/mL
- MIC (drug alone) (S. aureus; S. aureus B9241 (gentamycin and ciprofloxacin resistant)): 8 µg/mL
- MIC (drug alone) (S. aureus; S. aureus BK1 (MRSA, ciprofloxacin resistant)): 4 µg/mL
- MIC (drug alone) (S. aureus; S. aureus BK18): 2 µg/mL and 4 µg/mL
- MIC (drug alone) (S. aureus; VRSA strain VRS 1): 1.9 µg/mL
- MIC (drug alone) (S. aureus; VRSA strain VRS 2): 1.9 µg/mL
- MIC (drug alone) (S. aureus; VRSA strain VRS 3a): 1.9 µg/mL
- MIC (drug alone) (S. aureus; VRSA strain VRS 3b): 0.97 µg/mL
- MIC (drug alone) (S. aureus; VRSA strain VRS 4): 1.9 µg/mL
- MIC (drug alone) (S. aureus; VRSA strain VRS 10): 3.9 µg/mL
- CFU/mL after treatment of persisters ([1]; B9377 Daptomycin persisters): 1 × 10^1 CFU/mL
- CFU/mL after treatment of persisters ([1]; B9377 Vancomycin persisters): 2.5 × 10^1 CFU/mL
- CFU/mL after treatment of persisters ([1]; BK18 Daptomycin persisters): 1 × 10^1 CFU/mL
- CFU/mL after treatment of persisters ([1]; BK18 Vancomycin persisters): 5 × 10^1 CFU/mL
- Drop in CFU ([1]; Vancomycin persisters (1×10^6 CFU/mL) of S. aureus BK18 and B9377 treated with P128): ~5 log
- CFU recovered ([1]; daptomycin persisters of S. aureus treated with P128): < 10 CFU/mL
- Removal of visual biomass ([2]; P128 8 μg/mL (1×MIC), SOC antibiotics 250×MIC or 100×MIC): removed all visual biomass
- Time of treatment to eliminate the biofilms ([2]; P128 at 1×MIC (8 μg/mL)): ≤ 2 h
- OD570 of crystal violet vs cell control ([2]; even after 24 h, all three CoNS sp.): significant drop in OD
